Laboratory results from ChEMBL document CHEMBL1201862, “PubChem BioAssay data set” (2004).
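Interpolation was linear, between the two tested concentrations surrounding the appropriate level; five concentrations were tested over 48 hours in 96-well plates. The concentration for 50% growth inhibition is given as GI50.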 Activity calls are given as the source filed them. No stated cut-off is given here; in the data, active = GI50 up to about 1.1 µM and inactive = higher.

Legend:
Experiment in all cases: NCI-60 cell line screen, 48 h
UACC-62 = tested on: UACC-62
Malme-3M = tested on: Malme-3M
HCT-116 = tested on: HCT-116
SF-268 = tested on: SF-268
NCI-H522 = tested on: NCI-H522
T47D = tested on: T47D
BT-549 = tested on: BT-549
SK-MEL-2 = tested on: SK-MEL-2
UO-31 = tested on: UO-31
NCI/ADR-RES = tested on: NCI/ADR-RES
RPMI-8226 = tested on: RPMI-8226
SW-620 = tested on: SW-620
ACHN = tested on: ACHN
MDA-N = tested on: MDA-N
HCT-15 = tested on: HCT-15
SR = tested on: SR
HCC 2998 = tested on: HCC 2998
SK-OV-3 = tested on: SK-OV-3
SNB-19 = tested on: SNB-19
TK-10 = tested on: TK-10

For `COc1ccc(/C=C/C(=O)Oc2ccc(/C=C3\CCCCC3=O)cc2)cc1`, the GI50 (UACC-62) was 2.96 µM (inactive), the GI50 (Malme-3M) was > 79.1 µM (inactive) and the GI50 (HCT-116) was 9.33 µM (inactive). For the same compound, the GI50 (SF-268) was 8 µM (inactive), the GI50 (NCI-H522) was > 100 µM (inactive) and the GI50 (T47D) was > 100 µM (inactive). The GI50 (BT-549) was 72.3 µM (inactive), the GI50 (SK-MEL-2) was > 100 µM (inactive) and the GI50 (UO-31) was > 100 µM (inactive). For the same compound, the GI50 (NCI/ADR-RES) was > 57.4 µM (inactive), the GI50 (RPMI-8226) was 3.61 µM (inactive) and the GI50 (SW-620) was > 93.1 µM (inactive). The GI50 (ACHN) was > 100 µM (inactive), the GI50 (MDA-N) was > 100 µM (inactive) and the GI50 (HCT-15) was 29.1 µM. For the same compound, the GI50 (SR) was > 100 µM (inactive), the GI50 (HCC 2998) was > 39.1 µM (inactive) and the GI50 (SK-OV-3) was > 100 µM (inactive). For the same compound, the GI50 (SNB-19) was > 66.1 µM (inactive) and the GI50 (TK-10) was > 91.6 µM (inactive).
